For test [1], the target named is T1, Peroxisome proliferator-activated receptor gamma (Homo sapiens) (UniProt P37231).
T1 sequence (whole entry): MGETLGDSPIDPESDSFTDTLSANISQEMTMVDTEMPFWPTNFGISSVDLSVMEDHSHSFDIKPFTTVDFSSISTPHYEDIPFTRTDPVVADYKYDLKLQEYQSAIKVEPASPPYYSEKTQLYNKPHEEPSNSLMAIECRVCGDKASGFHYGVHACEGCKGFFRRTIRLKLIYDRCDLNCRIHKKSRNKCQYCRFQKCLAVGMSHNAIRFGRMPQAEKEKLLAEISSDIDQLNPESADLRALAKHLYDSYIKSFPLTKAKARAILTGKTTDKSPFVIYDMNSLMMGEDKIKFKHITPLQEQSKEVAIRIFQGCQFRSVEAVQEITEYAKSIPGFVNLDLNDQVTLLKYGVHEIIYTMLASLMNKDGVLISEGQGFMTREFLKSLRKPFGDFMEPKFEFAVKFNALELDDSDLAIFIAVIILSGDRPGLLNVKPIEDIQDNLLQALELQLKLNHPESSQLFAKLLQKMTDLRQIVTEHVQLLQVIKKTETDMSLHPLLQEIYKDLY
As to the kind of experiment: Agonist activity at human GAL4-tagged-PPARgamma transfected in monkey COS1 cells by transient transfection/luciferase reporter gene assay relative to 30 uM pioglitazone. Format: cell-based. The conditions noted are these: COS-1.

The target in test [2] is T1, Peroxisome proliferator-activated receptor gamma (Homo sapiens). Briefly: Agonist activity at human GAL4-tagged-PPARgamma transfected in monkey COS1 cells by transient transfection/luciferase reporter gene assay relative to 10 uM rosiglitazone. Format: cell-based. Conditions: COS-1.

As to `CCCOc1ccc(C(=O)NS(=O)(=O)c2ccccc2)cc1CNC(=O)c1ccc(-c2ncccn2)cc1`, the %max in test [1] and in test [2] was 50% in each case.
